Source: publication PMC3397407 (Journal of Medicinal Chemistry, 2012)

Tests used:
NFκB = NFκB luciferase assay; assay type: cell-based, Human
[1] = In vivo disposition and metabolites of 3 in rats after gavage; design: species or system rat; details: after gavage of 3
[2] = Chemical stability of synthetic metabolite 4; assay type: physicochemical; details: air and moisture or DMSO solution
[3] = test system: RXRE transcriptional activity (COS-1 cells transfected with pRXRE, phRXRα and pRL); assay: RXRE-luciferase reporter gene assay; details: for absolute activity induced (firefly luciferase, not normalized): 24 h incubation conditions; for maximum enhancement of RXRE transcriptional activity: after 4–6 h of incubation
[4] = Metabolic stability with pooled human liver microsomes
[5] = 10 µM, glutathione 10 mM, NADPH, 60 min
[6] = rat, gavage 40 mg/kg daily for 3 days; cited from earlier work

## Nc1ccc2c3c(n(CCCO)c(=O)c2c1)-c1ccccc1C3O (centres unmarked) [Compound 8, 3-Amino-11-hydroxy-6-(3-hydroxypropyl)-6,11-dihydro-5H-indeno[1,2-c]isoquinolin-5-one]
NFκB
  activity as inhibitor of NFκB, in words: inhibited activity as high concentrations
[1]
  metabolite detected in rat liver: detected in rat liver
  metabolite detected in rat mammary tissue: not in serum or mammary tissue

## CC(=O)Nc1ccc2c3c(n(CCCN)c(=O)c2c1)-c1ccccc1C3O (centres unmarked) [Compound 6, N-[6-(3-Aminopropyl)-11-hydroxy-5-oxo-6,11-dihydro-5H-indeno[1,2-c]isoquinolin-3-yl]acetamide]
[1]
  metabolite observed in vivo using rats: all except 6 and 10 were observed in vivo

## CC(=O)Nc1ccc2c3c(n(CCCO)c(=O)c2c1)-c1ccccc1C3=O [Compound 9, N-[6-(3-Hydroxypropyl)-5,11-dioxo-6,11-dihydro-5H-indeno[1,2-c]isoquinolin-3-yl]acetamide]
[1]
  metabolite detected in rat liver: detected in rat liver
  metabolite detected in rat mammary tissue: not in serum or mammary tissue

## Nc1ccc2c3c(n(CCCO)c(=O)c2c1)-c1ccccc1C3=O [Compound 7, 6-(3-Hydroxypropyl)-3-amino-5H-indeno[1,2-c]isoquinoline-5,11(6H)dione]
[1]
  metabolite detected in rat liver: detected in rat liver
  metabolite detected in rat mammary tissue: not in serum or mammary tissue

## CNc1ccc2c3c(n(CCCNC(=O)OC(C)(C)C)c(=O)c2c1)-c1ccccc1C3O (centres unmarked) [Compound 27]
NFκB
  concentration range of NFκB inhibition, in words: sub-µM concentrations

## NCCCn1c2c(c3ccc(N)cc3c1=O)C(O)c1ccccc1-2 (centres unmarked) [Compound 4, 3-Amino-6-(3-aminopropyl)-11-hydroxy-6,11-dihydro-5H-indeno[1,2-c]isoquinolin-5-one]
[2]
  chemical stability: rather unstable and slowly oxidized back to 3
[1]
  metabolite detected in rat liver: detected in rat liver
  metabolite detected in rat mammary tissue: not in serum or mammary tissue

## CNCCCn1c2c(c3ccc(N)cc3c1=O)C(O)c1ccccc1-2 (centres unmarked) [Compound 34]
NFκB
  concentration range of NFκB inhibition, in words: sub-µM concentrations

## CNc1ccc2c3c(n(CCCN)c(=O)c2c1)-c1ccccc1C3O (centres unmarked) [Compound 29]
NFκB
  concentration range of NFκB inhibition, in words: sub-µM concentrations

## CC(=O)Nc1ccc2c3c(n(CCCN)c(=O)c2c1)-c1ccccc1C3=O [Compound 5, N-[6-(3-Aminopropyl)-5,11-dioxo-6,11-dihydro-5H-indeno[1,2-c]isoquinolin-3-yl]acetamide]
[3]
  activity as inducer of RXRE transcriptional activity, in words: moderately active at high concentrations
[1]
  metabolite detected in rat liver: detected
  metabolite detected in rat mammary tissue: not in mammary tissue
  metabolite detected in rat serum: detected

## C=C(c1ccc(C(=O)O)cc1)c1cc2c(cc1C)C(C)(C)CCC2(C)C [Compound 2, bexarotene, reference compound]
[3]
  absolute activity induced (firefly luciferase, not normalized): 22.4 ± 3.1 fold
  maximum enhancement of RXRE transcriptional activity: 10 fold
[3]; at 40 µM
  RXRE IR: 8.85±3.89

## NCCCn1c2c(c3ccc(N)cc3c1=O)C(=O)c1ccccc1-2 [Compound 3, 3-amino-6-(3'-aminopropyl)-5H-indeno[1,2-c]isoquinoline-5,11-(6H)dione]
[4]; 1 µM, 1 mg protein/mL, 60 min
  elimination rate constant: 0.0053
[4]; both, human, microsomes, pH 7.4
  CLint scaled at 1 µM: 5.33 mL/min/kg
[5]
  formation of glutathione conjugates (electrophilic metabolites): no evidence of glutathione conjugates
[3]
  RXRE Highest IR (maximum induction ratio): 7.67±0.37
  absolute activity induced (firefly luciferase, not normalized): 40.5 ± 5.4 fold
  maximum enhancement of RXRE transcriptional activity: 5 fold
[3]; 24 h incubation, 5 µM
  RXRE induction: ~ 160 fold
[3]; 24 h incubation, Figure 9
  induction ratio normalized on Renilla luciferase activity: exceeded 100 fold
[6]
  concentration in liver: 4.3 µg/g
  concentration in mammary gland: 0.3 µg/g
  concentration in serum: 800 ng/mL
